Source: US20200392158A1, “INHIBITORS OF LEUCINE RICH REPEAT KINASE 2” (GLAXOSMITHKLINE INTELLECTUAL PROPERTY DEVELOPMENT LIMITED, priority 2017, published 2020)

Columns and labels:
[1] = target: T1, full length G2019 human LRRK2 (Homo sapiens, UniProt Q5S007, R50H); assay: Full length G2019 human LRRK2 inhibition mass spectrometry assay; format: biochemical; conditions: LRRKtide to phospho-LRRKtide conversion, RapidFire MS, 2 mM ATP
T1 construct: made in house; host or cells: HEK293 6E cells transduced with BacMam virus (virus generated in Sf9 cells)
T1 sequence (Q5S007 with tags, fused parts or gaps R50H): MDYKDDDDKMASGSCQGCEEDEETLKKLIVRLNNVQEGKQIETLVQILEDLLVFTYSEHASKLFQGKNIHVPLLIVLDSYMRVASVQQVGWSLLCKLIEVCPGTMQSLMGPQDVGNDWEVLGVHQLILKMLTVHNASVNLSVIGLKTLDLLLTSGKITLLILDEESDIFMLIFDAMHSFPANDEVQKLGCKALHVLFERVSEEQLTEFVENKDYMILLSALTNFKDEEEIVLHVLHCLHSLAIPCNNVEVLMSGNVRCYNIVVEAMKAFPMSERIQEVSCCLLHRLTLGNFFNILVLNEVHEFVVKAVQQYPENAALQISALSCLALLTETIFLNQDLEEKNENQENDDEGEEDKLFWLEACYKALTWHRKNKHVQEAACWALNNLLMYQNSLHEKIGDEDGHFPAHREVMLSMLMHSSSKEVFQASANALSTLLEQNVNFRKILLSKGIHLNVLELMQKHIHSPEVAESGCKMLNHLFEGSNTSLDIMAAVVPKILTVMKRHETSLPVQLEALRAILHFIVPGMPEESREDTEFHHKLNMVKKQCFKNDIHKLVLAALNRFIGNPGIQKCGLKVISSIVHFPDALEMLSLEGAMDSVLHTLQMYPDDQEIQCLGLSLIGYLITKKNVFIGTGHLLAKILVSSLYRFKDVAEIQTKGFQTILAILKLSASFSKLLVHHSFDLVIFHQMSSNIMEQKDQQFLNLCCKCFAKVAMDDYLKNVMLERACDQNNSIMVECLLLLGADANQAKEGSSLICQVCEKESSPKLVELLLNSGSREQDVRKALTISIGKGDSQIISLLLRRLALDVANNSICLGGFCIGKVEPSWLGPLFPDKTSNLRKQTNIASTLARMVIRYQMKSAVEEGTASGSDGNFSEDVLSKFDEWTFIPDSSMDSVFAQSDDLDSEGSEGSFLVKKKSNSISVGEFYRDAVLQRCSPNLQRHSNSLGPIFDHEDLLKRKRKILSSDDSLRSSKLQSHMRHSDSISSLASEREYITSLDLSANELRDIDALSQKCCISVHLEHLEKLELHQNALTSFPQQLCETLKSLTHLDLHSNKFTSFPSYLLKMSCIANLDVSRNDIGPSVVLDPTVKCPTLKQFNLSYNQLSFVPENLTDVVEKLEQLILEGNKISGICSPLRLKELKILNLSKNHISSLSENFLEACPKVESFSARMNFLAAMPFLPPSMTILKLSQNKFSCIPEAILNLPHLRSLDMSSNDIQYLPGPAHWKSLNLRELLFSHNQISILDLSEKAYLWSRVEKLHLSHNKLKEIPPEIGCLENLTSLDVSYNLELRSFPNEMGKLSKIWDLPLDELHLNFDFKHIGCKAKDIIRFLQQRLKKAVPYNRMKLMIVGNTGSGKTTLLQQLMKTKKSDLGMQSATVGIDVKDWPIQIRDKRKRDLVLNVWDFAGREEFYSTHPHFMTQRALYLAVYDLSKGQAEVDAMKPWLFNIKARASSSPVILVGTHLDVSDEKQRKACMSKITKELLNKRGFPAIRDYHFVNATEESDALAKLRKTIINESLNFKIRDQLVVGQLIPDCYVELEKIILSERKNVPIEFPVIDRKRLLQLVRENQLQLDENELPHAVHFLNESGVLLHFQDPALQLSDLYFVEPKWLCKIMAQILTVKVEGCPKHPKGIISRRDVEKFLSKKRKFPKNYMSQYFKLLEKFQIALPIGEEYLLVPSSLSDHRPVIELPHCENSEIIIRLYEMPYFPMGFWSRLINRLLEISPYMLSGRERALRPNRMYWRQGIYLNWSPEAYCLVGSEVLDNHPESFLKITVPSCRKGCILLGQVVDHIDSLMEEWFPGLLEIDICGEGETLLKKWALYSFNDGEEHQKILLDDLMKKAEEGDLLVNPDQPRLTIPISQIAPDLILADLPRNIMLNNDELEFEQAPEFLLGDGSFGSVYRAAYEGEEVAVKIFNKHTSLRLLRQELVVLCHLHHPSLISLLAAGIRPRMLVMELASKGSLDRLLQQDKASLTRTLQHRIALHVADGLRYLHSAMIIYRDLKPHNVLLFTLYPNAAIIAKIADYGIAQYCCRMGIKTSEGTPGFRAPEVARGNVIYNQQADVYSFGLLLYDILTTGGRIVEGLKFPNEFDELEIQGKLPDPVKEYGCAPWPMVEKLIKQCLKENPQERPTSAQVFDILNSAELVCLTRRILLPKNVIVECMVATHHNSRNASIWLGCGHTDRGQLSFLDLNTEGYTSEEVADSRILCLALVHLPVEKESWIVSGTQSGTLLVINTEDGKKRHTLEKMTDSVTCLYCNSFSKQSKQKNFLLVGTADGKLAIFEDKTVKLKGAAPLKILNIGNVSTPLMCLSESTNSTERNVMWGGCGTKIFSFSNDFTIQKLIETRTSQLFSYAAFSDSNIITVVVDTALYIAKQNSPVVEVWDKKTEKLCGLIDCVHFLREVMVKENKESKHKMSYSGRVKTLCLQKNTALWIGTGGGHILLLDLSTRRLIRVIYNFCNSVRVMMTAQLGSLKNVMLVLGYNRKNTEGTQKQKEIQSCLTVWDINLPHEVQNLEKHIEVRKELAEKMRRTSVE
In short: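 Inhibition taken as reduced LRRKtide phosphorylation, quantified by RapidFire-coupled triple-quadrupole MS as product/(product+substrate) peak area. Reaction: 2 mM ATP, 25 μM peptide, ~25 nM full-length G2019 Flag-LRRK2, Hepes pH 7.2 buffer, room temperature for 1 h. 11-point 1-in-4 dilutions from 100 μM; logistic fit gives IC50, reported as pIC50.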

[2] = target: T2, LRRK2 kinase in SH-SY5Y cells over-expressing recombinant full length LRRK2 (Homo sapiens, UniProt Q5S007); assay: Recombinant cellular LRRK2 AlphaScreen assay (LRRK2 Ser935 phosphorylation); format: cell-based; conditions: 60 min
T2 construct: A BacMam virus expressing full length recombinant LRRK2 was purchased from Invitrogen; host or cells: SH-SY5Y human neuroblastoma cells transduced with BacMam LRRK2 virus
T2 sequence (Q5S007 whole entry): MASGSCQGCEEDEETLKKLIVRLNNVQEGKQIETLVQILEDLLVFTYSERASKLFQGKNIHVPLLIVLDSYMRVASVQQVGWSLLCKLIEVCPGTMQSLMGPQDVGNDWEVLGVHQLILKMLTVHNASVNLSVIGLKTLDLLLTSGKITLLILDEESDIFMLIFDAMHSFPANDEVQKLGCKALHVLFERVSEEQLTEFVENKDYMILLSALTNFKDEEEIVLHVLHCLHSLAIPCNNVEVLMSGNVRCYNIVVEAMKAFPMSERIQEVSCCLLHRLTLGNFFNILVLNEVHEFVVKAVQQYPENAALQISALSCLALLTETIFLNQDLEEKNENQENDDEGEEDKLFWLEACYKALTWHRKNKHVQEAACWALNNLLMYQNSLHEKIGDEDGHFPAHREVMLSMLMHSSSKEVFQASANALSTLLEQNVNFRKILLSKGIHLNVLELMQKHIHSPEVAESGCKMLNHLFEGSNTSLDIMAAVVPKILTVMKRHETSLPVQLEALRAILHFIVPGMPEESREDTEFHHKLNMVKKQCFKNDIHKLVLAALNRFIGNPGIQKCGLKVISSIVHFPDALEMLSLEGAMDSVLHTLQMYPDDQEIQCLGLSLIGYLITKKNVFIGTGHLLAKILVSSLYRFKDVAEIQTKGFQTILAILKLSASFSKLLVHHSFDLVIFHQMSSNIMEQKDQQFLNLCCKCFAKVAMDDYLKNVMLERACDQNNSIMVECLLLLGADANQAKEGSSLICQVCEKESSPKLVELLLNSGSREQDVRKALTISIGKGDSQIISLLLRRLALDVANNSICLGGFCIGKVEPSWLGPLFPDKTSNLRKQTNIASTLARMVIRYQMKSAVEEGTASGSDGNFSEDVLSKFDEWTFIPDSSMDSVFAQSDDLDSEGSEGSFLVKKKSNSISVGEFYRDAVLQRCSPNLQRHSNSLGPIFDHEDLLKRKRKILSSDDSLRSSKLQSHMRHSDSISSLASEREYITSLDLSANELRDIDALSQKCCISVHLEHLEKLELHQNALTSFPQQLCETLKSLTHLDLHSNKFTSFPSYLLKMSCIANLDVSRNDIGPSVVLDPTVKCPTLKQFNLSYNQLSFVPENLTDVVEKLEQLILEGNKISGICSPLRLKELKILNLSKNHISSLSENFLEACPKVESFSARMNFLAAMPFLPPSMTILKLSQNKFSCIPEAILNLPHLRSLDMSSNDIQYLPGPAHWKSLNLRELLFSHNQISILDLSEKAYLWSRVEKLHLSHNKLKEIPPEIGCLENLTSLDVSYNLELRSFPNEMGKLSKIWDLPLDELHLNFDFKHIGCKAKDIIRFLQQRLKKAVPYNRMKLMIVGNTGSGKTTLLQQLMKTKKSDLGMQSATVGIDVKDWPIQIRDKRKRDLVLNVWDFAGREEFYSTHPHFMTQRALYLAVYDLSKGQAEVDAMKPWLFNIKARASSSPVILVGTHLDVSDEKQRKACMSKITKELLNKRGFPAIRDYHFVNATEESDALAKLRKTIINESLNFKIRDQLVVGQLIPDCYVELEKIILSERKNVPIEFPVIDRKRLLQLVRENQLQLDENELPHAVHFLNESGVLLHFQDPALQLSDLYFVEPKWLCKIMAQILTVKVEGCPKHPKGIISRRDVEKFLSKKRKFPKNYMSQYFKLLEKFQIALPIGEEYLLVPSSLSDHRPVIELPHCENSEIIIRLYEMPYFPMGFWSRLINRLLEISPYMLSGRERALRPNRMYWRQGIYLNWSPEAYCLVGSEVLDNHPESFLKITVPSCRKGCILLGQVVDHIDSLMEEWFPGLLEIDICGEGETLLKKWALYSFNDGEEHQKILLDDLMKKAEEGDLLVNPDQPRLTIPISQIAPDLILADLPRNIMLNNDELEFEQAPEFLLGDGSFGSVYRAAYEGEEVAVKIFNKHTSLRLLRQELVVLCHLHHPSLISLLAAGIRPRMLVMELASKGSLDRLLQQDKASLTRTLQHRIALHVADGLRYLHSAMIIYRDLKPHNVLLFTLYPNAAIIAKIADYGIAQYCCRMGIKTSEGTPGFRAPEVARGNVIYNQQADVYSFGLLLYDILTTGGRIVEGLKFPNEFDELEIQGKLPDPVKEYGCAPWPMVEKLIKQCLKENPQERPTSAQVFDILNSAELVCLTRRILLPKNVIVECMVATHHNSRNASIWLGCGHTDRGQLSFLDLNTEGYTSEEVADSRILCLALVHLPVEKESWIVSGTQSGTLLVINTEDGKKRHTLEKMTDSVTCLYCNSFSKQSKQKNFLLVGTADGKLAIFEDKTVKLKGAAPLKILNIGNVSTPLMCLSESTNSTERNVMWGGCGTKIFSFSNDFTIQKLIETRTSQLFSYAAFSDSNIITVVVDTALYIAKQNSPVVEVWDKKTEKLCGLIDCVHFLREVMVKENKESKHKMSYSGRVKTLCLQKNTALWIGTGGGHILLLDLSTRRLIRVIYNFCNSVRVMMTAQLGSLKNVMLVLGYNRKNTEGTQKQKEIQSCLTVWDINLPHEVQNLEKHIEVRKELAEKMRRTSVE
In short: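 Read-out is AlphaScreen of LRRK2 pSer935 over total LRRK2 in lysates of SH-SY5Y cells over-expressing full-length LRRK2 via BacMam (24 h transduction). Cells were exposed 60 min at 37 °C to an 11-point 1-in-4 dilution series starting at 10 uM; sigmoidal fit.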

SMILES | IC50 [1] [nM] | IC50 [2] [nM]
Cc1c2c(nn1C1CC(N3C[C@@H]4C[C@H]3CO4)C1)OCCCNc1nc(ncc1Cl)N2 (stereo partly drawn) [E311, 14-Chloro-4-methyl-5-{3-[(1S,4S)-2-oxa-5-azabicyclo[2.2.1]heptan-5-yl]-cyclobutyl}-8-oxa-2,5,6,12,16,17-hexaazatricyclo [11.3.1.0^3,7]heptadeca-1(16),3,6,13(17),14-pentaene] | ≤ 100 | ≤ 100
Cc1c2c(nn1C1CC(N3CCC(F)(F)C3)C1)OCCCNc1nc(ncc1Cl)N2 (stereo not shown) [E312, 14-Chloro-5-[3-(3,3-difluoropyrrolidin-1-yl)cyclobutyl]-4-methyl-8-oxa-2,5,6,12,16,17-hexaazatricyclo[11.3.1.0^3,7] heptadeca-1(16),3,6,13(17),14-pentaene] | 100000 | ≤ 100
Cc1c2c(nn1C1CC(N3C[C@H]4C[C@@H]3CO4)C1)OCC[C@@H](C)Nc1nc(ncc1Cl)N2 (stereo partly drawn) [E317, (11R)-14-Chloro-4,11-dimethyl-5-{3-[(1R,4R)-2-oxa-5-azabicycle [2.2.1]heptan-5-yl]cyclobutyl}-8-oxa-2,5,6,12,16,17-hexaaza tricyclo[11.3.1.0^3,7]heptadeca-1(16),3,6,13(17),14-pentaene] | ≤ 100 | ≤ 100
Cc1c2c(nn1C(=O)C1CCOCC1)OCCCNc1nc(ncc1Cl)N2 [E363, 14-Chloro-4-methyl-5-(oxane-4-carbonyl)-8-oxa-2,5,6,12,16,17-hexaazatricyclo[11.3.1.0^3,7]heptadeca-1(16),3,6,13(17),14-pentaene] | ≤ 10000 | ≤ 100
Cc1c2c(nn1C1CN(C3CCOCC3)C1)OCC[C@@H](C)Nc1nc(ncc1Cl)N2 [E365, (11R)-14-Chloro-4,11-dimethyl-5-[1-(oxan-4-yl)azetidin-3-yl]-8-oxa-2,5,6,12,16,17-hexaazatricyclo[11.3.1.0^3,7]heptadeca-1(16), 3,6,13(17),14-pentaene] | ≤ 100 | ≤ 100
Cc1c2c(nn1C1CN(C3CCOCC3)C1)OCCCNc1nc(ncc1Cl)N2 [E366, 14-Chloro-4-methyl-5-[1-(oxan-4-yl)azetidin-3-yl]-8-oxa-2,5,6,12, 16,17-hexaazatricyclo[11.3.1.0^3,7]heptadeca-1(16),3,6,13(17),14-pentaene] | ≤ 100 | ≤ 100
Cc1c2c(nn1C1CCOCC1)OCCCNc1nc(ncc1Br)N2 [E367, 14-Bromo-4-methyl-5-(oxan-4-yl)-8-oxa-2,5,6,12,16,17-hexaaza tricyclo[11.3.1.0^3,7]heptadeca-1(16),3,6,13(17),14-pentaene] | ≤ 100 | ≤ 100
Cc1c2c(nn1C1CC(O)C1)OCC[C@@H](C)Nc1nc(ncc1Cl)N2 (stereo partly drawn) [E375, 3-[(11R)-14-Chloro-4,11-dimethyl-8-oxa-2,5,6,12,16,17-hexaazatricyclo[11.3.1.0^3,7]heptadeca-1(16),3,6,13(17),14-pentaen-5-yl]cyclobutan-1-ol] | ≤ 100 | ≤ 100
Cc1c2c(nn1C1CC(O)C1)OCC[C@@H](C)N(C)c1nc(ncc1Cl)N2 (stereo partly drawn) [E376, 3-[(11R)-14-Chloro-4,11,12-trimethyl-8-oxa-2,5,6,12,16,17-hexaazatricyclo[11.3.1.0^3,7]heptadeca-1(16),3,6,13(17),14-pentaen-5-yl] cyclobutan-1-ol] | ≤ 100 | ≤ 100
Cc1c2c(nn1C1CCOCC1)OCC(F)(F)CNc1nc(ncc1Cl)N2 [E377, 14-Chloro-10,10-difluoro-4-methyl-5-(oxan-4-yl)-8-oxa-2,5,6,12,16,17-hexaazatricyclo[11.3.1.0^3,7]heptadeca-1(16),3,6,13(17),14-pentaene] | ≤ 100 | ≤ 100
Cc1c2c(nn1C1CC(OC(F)F)C1)OCC[C@@H](C)Nc1nc(ncc1Cl)N2 (stereo partly drawn) [E378, (11R)-14-Chloro-5-[3-(difluoromethoxy)cyclobutyl]-4,11-dimethyl-8-oxa-2,5,6,12,16,17-hexaazatricyclo[11.3.1.0^3,7] heptadeca-1(16),3,6,13(17),14-pentaene] | ≤ 100 | ≤ 100
Cc1c2c(nn1C1CCCOC1)OCCCNc1cc(ncc1Cl)N2 (stereo not shown) [E379, 14-Chloro-4-methyl-5-(oxan-3-yl)-8-oxa-2,5,6,12,16-pentaazatricyclo[11.3.1.0^3,7] heptadeca-1 (16),3,6,13(17),14-pentaene] | ≤ 100 | ≤ 100
Cc1c2c(nn1C1CCN(C3CCOC3)CC1)OCC[C@@H](C)Nc1nc(ncc1Cl)N2 (stereo partly drawn) [E382, (11R)-14-Chloro-4,11-dimethyl-5-[1-(oxolan-3-yl)piperidin-4-yl]-8-oxa-2,5,6,12,16,17-hexaazatricyclo[11.3.1.0^3,7]heptadeca-1(16),3,6,13(17),14-pentaene] | ≤ 100 | ≤ 100
Cc1c2c(nn1C1CN(C3CCCOC3)C1)OCC[C@@H](C)Nc1nc(ncc1Cl)N2 (stereo partly drawn) [E385, (11R)-14-Chloro-4,11-dimethyl-5[1-(oxan-3-yl)azetidin-3-yl]-8-oxa-2,5,6,12,16,17-hexaazatricyclo[11.3.1.0^3,7]heptadeca-1(16),3,6,13(17),14-pentaene] | ≤ 100 | ≤ 100
Cc1c2c(nn1C1CCOC(C)C1)OCCC(C(F)F)Nc1nc(ncc1Cl)N2 (stereo not shown) [E386, 14-Chloro-11-(difluoromethyl)-4-methyl-5-(2-methyloxan-4-yl)-8-oxa-2,5,6,12,16,17-hexaazatricyclo[11.3.1.0^3,7]heptadeca-1(16),3,6,13(17),14-pentaene] | ≤ 100 | ≤ 100
Cc1c2c(nn1C1CCOCC1F)OC[C@@H](F)[C@@H](C)Nc1nc(ncc1Cl)N2 (stereo partly drawn) [E387, (10S, 11R)-14-Chloro-10-fluoro-5-(3-fluorooxan-4-yl)-4,11-dimethyl-8-oxa-2,5,6,12,16,17-hexaazatricyclo[11.3.1.0^3,7] heptadeca-1(16),3,6,13(17),14-pentaene] | ≤ 100 | ≤ 100
C=Cc1cnc2nc1N[C@H](C)CCOc1nn(C3CCOCC3)c(C)c1N2 [E389, (11R)-14-Ethenyl-4,11-dimethyl-5-(oxan-4-yl)-8-oxa-2,5,6,12,16,17-hexaazatricyclo[11.3.1.0^3,7]heptadeca-1(16)53,6,13(17),14-pentaene] | ≤ 100 | ≤ 100
Cc1c2c(nn1C1CCOCC1)OCC(F)C(CF)Nc1nc(ncc1Cl)N2 (stereo not shown) [E391, 14-Chloro-10-fluoro-11-(fluoromethyl)-4-methyl-5-(oxan-4-yl)-8-oxa-2,5,6,12,16,17-hexaazatricyclo[11.3.1.0^3,7]heptadeca-1(16),3,6,13(17),14-pentaene] | ≤ 100 | ≤ 100
Cc1[nH]nc2c1Nc1ncc(Cl)c(n1)N[C@H](C)CCO2 [E394, (11R)-14-Chloro-4,11-dimethyl-8-oxa-2,5,6,12,16,17-hexaazatricyclo[11.3.1.0^3,7]heptadeca-1(16),3,6,13(17),14-pentaene] | ≤ 100 | ≤ 100
Cc1[nH]nc2c1Nc1ncc(Cl)c(n1)NCCCO2 [E395, 14-Chloro-4-methyl-8-oxa-2,5,6,12,16,17-hexaazatricyclo [11.3.1.0^3,7]heptadeca-1(16),3,6,13(17),14-pentaene] | ≤ 100 | ≤ 100
Clc1cnc2nc1NCCCOc1n[nH]c(Cl)c1N2 [E396, 4,14-Dichloro-8-oxa-2,5,6,12,16,17 hexaazatricyclo[11.3.1.0^3,7] heptadeca-1(16),3,6,13(17),14-pentaene] | ≤ 100 | ≤ 100
C[C@@H]1CCOc2n[nH]c(Cl)c2Nc2ncc(Cl)c(n2)N1 [E397, (11R)-4,14-Dichloro-11-methyl-8-oxa-2,5,6,12,16,17-hexaazatricyclo[11.3.1.0^3,7]heptadeca-1(16),3,6,13(17),14-pentaene] | ≤ 100 | ≤ 100
CCc1c2c(nn1C1CCOCC1)OCC[C@@H](C)Nc1nc(ncc1Cl)N2 [E399, (11R)-14-Chloro-4-ethyl-11-methyl-5-(oxan-4-yl)-8-oxa-2,5,6,12,16,17-hexaazatricyclo[11.3.1.0^3,7]heptadeca-1(16),3,6,13(17),14-pentaene] | ≤ 100 | ≤ 100
C#Cc1cnc2nc1N[C@H](C)CCOc1nn(C3CCOCC3)c(C)c1N2 [E401, (11R)-14-Ethynyl-4,11-dimethyl-5-(oxan-4-yl)-8-oxa-2,5,6,12,16,17-hexaazatricyclo[11.3.1.0^3,7]heptadeca-1(16),3,6,13(17),14-pentaene] | ≤ 100 | ≤ 100
Cc1c2c(nn1C1CC(F)CN(C3COC3)C1)OCC[C@@H](C)Nc1nc(ncc1Cl)N2 (stereo partly drawn) [E410, (11R)-14-Chloro-5-[5-fluoro-1-(oxetan-3-yl)piperidin-3-yl]-4,11-dimethyl-8-oxa-2,5,6,12,16,17 hexaazatricyclo[11.3.1.0^3,7] heptadeca-1(16),3,6,13(17),14-pentaene] | ≤ 100 | ≤ 100
Cc1c2c(nn1C1CCN(C3COC3)CC1(F)F)OCC[C@@H](C)Nc1nc(ncc1Cl)N2 (stereo partly drawn) [E411, (11R)-14-Chloro-5-[3,3-difluoro-1-(oxetan-3-yl)piperidin-4-yl]-4,11-dimethyl-8-oxa-2,5,6,12,16,17-hexaazatricyclo[11.3.1. 0^3,7]heptadeca-1(16),3,6,13(17),14-pentaene] | ≤ 100 | ≤ 100
